Values quoted from earlier work in paper PMC5590101 (Journal of medicinal chemistry, 2016).

Assays:
OVCAR-5 = conditions: NCI panel, ovarian cancer; cited from earlier work
EKVX = conditions: NCI panel, NSCLC; cited from earlier work
OVCAR-8 = conditions: NCI panel, ovarian cancer; cited from earlier work
MCF7 = conditions: NCI panel, breast cancer; cited from earlier work
HT29 = conditions: NCI panel, colon cancer; cited from earlier work
IGROVI = conditions: NCI panel, ovarian cancer; cited from earlier work
RPMI-8226 = conditions: NCI panel, leukemia; cited from earlier work
RXF 393 = conditions: NCI panel, renal cancer; cited from earlier work
MDA-MB-231/ATCC = conditions: NCI panel, breast cancer; cited from earlier work
NCI-H460 = conditions: NCI panel, NSCLC; cited from earlier work
HCT-15 = conditions: NCI panel, colon cancer; cited from earlier work
ACHN = conditions: NCI panel, renal cancer; cited from earlier work
SK-MEL-5 = conditions: NCI panel, melanoma; cited from earlier work
SF-295 = conditions: NCI panel, CNS cancer; cited from earlier work
A498 = conditions: NCI panel, renal cancer; cited from earlier work
U251 = conditions: NCI panel, CNS cancer; cited from earlier work
HCT-116 = conditions: NCI panel, colon cancer; cited from earlier work
MDA-MB-435 cells = conditions: read-out: IC50 ± SD MDA-MB-435; results previously published; cited from earlier work
BT-549 = conditions: NCI panel, breast cancer; cited from earlier work
MOLT-4 = conditions: NCI panel, leukemia; cited from earlier work
A549/ATCC = conditions: NCI panel, NSCLC; cited from earlier work
LOX IMVI = conditions: NCI panel, melanoma; cited from earlier work
SR = conditions: NCI panel, leukemia; cited from earlier work
COLO 205 = conditions: NCI panel, colon cancer; cited from earlier work
NCI/ADR-RES = conditions: NCI panel, ovarian cancer; cited from earlier work
SK-OV-3 [1] = conditions: NCI panel, ovarian cancer; cited from earlier work
NCI-H322M = conditions: NCI panel, NSCLC; cited from earlier work
SNB-19 = conditions: NCI panel, CNS cancer; cited from earlier work
SF-268 = conditions: NCI panel, CNS cancer; cited from earlier work
UO-31 = conditions: NCI panel, renal cancer; cited from earlier work
CCRF-CEM = conditions: NCI panel, leukemia; cited from earlier work
SK-OV-3 MDR1-M6/6 = conditions: IC50 MDR1-M6/6 / IC50 SK-OV-3; results previously published; cited from earlier work
PC-3 = conditions: NCI panel, prostate cancer; cited from earlier work
OVCAR-3 = conditions: NCI panel, ovarian cancer; cited from earlier work
SF-539 = conditions: NCI panel, CNS cancer; cited from earlier work
NCI-H226 = conditions: NCI panel, NSCLC; cited from earlier work
SN12C = conditions: NCI panel, renal cancer; cited from earlier work
DU-145 = conditions: NCI panel, prostate cancer; cited from earlier work
HeLa = conditions: read-out: IC50 ± SD HeLa; parental line; results previously published; cited from earlier work
NCI-H23 = conditions: NCI panel, NSCLC; cited from earlier work
HOP-92 = conditions: NCI panel, NSCLC; cited from earlier work
KM12 = conditions: NCI panel, colon cancer; cited from earlier work
TK10 = conditions: NCI panel, renal cancer; cited from earlier work
MDA-MB-435 = conditions: NCI panel, melanoma; cited from earlier work
SK-MEL-28 = conditions: NCI panel, melanoma; cited from earlier work
K-562 = conditions: NCI panel, leukemia; cited from earlier work
786–0 = conditions: NCI panel, renal cancer; cited from earlier work
OVCAR-4 = conditions: NCI panel, ovarian cancer; cited from earlier work
HS 578T = conditions: NCI panel, breast cancer; cited from earlier work
HCC-2998 = conditions: NCI panel, colon cancer; cited from earlier work
HeLa WTβIII = conditions: IC50 HeLa WTβIII / IC50 HeLa; results previously published; cited from earlier work
HL-60(TB) = conditions: NCI panel, leukemia; cited from earlier work
SNB-75 = conditions: NCI panel, CNS cancer; cited from earlier work
M14 = conditions: NCI panel, melanoma; cited from earlier work
SK-OV-3 [2] = conditions: read-out: IC50 ± SD SK-OV-3; parental line; results previously published; cited from earlier work
[3] = tested on: microtubules in A-10 cells; conditions: read-out: EC50 for microtubule depolymerization in A-10 cells; results previously published; cited from earlier work
NCI-H522 = conditions: NCI panel, NSCLC; cited from earlier work
MDA-MB-468 = conditions: NCI panel, breast cancer; cited from earlier work
HOP-62 = conditions: NCI panel, NSCLC; cited from earlier work

COc1ccc(N(C)c2nc(C)nc3c2CC(C)C3)cc1.Cl (racemic) [(±)-1·HCl, N-(4-methoxyphenyl)-N,2,6-trimethyl-6,7-dihydro-5H-cyclo-penta[d]-pyrimidin-4-aminium chloride]
GI50 (OVCAR-5): 38.5 nM | GI50 (EKVX): 19.6 nM | GI50 (OVCAR-8): 32.8 nM | GI50 (MCF7): < 10 nM | GI50 (HT29): 11.8 nM | GI50 (IGROVI): 11 nM | GI50 (RPMI-8226): 15.7 nM | GI50 (RXF 393): < 10 nM | GI50 (MDA-MB-231/ATCC): 24.6 nM | GI50 (NCI-H460): 23.4 nM | GI50 (HCT-15): < 10 nM | GI50 (ACHN): 14.6 nM | GI50 (SK-MEL-5): < 10 nM | GI50 (SF-295): < 10 nM | GI50 (A498): < 10 nM | GI50 (U251): 12.5 nM | GI50 (HCT-116): 15.1 nM | IC50 (MDA-MB-435 cells): 17 ± 0.7 nM | GI50 (BT-549): 21.9 nM | GI50 (MOLT-4): 31.8 nM | GI50 (A549/ATCC): 24.4 nM | GI50 (LOX IMVI): 22.7 nM | GI50 (SR): < 10 nM | GI50 (COLO 205): 18.3 nM | GI50 (NCI/ADR-RES): < 10 nM | GI50 (SK-OV-3 [1]): 27.5 nM | GI50 (NCI-H322M): 59 nM | GI50 (SNB-19): 36.9 nM | GI50 (SF-268): 15.2 nM | GI50 (UO-31): 13.4 nM | GI50 (CCRF-CEM): 16.3 nM | Rr (relative resistance) (SK-OV-3 MDR1-M6/6): 1.2 | GI50 (PC-3): 14.6 nM | GI50 (OVCAR-3): < 10 nM | GI50 (SF-539): 11.4 nM | GI50 (NCI-H226): 31.5 nM | GI50 (SN12C): 31.8 nM | GI50 (DU-145): 21.4 nM | IC50 (HeLa): 37.3 ± 4.1 nM | GI50 (NCI-H23): 16.4 nM | GI50 (HOP-92): 55.4 nM | GI50 (KM12): < 10 nM | GI50 (TK10): 292 nM | GI50 (MDA-MB-435): < 10 nM | GI50 (SK-MEL-28): < 10 nM | GI50 (K-562): < 10 nM | GI50 (786–0): 34.8 nM | GI50 (OVCAR-4): 26.8 nM | GI50 (HS 578T): < 10 nM | GI50 (HCC-2998): 24 nM | Rr (relative resistance) (HeLa WTβIII): 0.6 | GI50 (HL-60(TB)): < 10 nM | GI50 (SNB-75): < 10 nM | GI50 (M14): 10.2 nM | IC50 (SK-OV-3 [2]): 38.6 ± 3.1 nM | EC50 [3]: 56 nM | GI50 (NCI-H522): < 10 nM | GI50 (MDA-MB-468): < 10 nM | GI50 (HOP-62): 19.4 nM
